Measurements reported in US12410472B2, “Method for evaluating the eye irritation potential of chemicals” (IMMUNOSEARCH, priority 2016, dated 2025).
Like-named read-outs stand apart in the source and are kept apart here. Marks after values point to notes of the source that are not given here.

Experiments:
[1] = tested on: reconstructed human corneal epithelium model (SkinEthic™ HCE)
Excerpt: The reconstructed human corneal epithelium model, (SkinEthic™ HCE) was purchased from Episkin in Lyon. The model consists of immortalized human corneal epithelial cells grown in a defined medium at the air-liquid interface. The tissue structure obtained is a multi-layer epithelium similar to the natural tissue structure of the human cornea, comprising 5-7 layers with a surface area of 0.5 cm^2.
Polyhedral cells and wing cells are also present. The tissue also comprises specific ultrastructures such as intermediate filaments, mature hemidesmosomes and desmosomes. […] The tissues are shipped on a semi-solid layer of agarose culture medium. Upon receipt, the tissues are transferred to maintenance medium (1 ml/well) in 6-well plates and incubated in a climatic chamber at 37° C., 5% CO2. The tissues are used 24 hours later.
Liquid products are tested for solubility in phosphate-buffered saline (PBS) or olive oil. In summary, 100 μl of the test product is mixed with 200 μl of PBS or olive oil.
The sample is mixed on a vortex mixer. Turbidity and possible phase separation are assessed by eye. The products are tested pure or diluted to 30%. Products that are not soluble in PBS or olive oil cannot be tested at 30%.
The procedure for applying liquid products to the tissues was optimized as follows: the chemicals are tested at two concentrations, 100% and 30%. In summary, the tissue surface is moistened by adding 20 μl of PBS at 37° C. and incubation for 10 min at 37° C./5% CO2. The corneal epithelia are then treated topically with 50±2 μL of the test product (corresponding to 100 μL/cm2) and incubated for 10 min at room temperature. The tissues are then washed with sterile PBS (2×25 ml) at 37° C. PBS is applied to the edge of the insert (not directly on the tissue) to create a gentle vortex that removes the chemical. The tissues on their inserts are then “embedded” in 5 ml of maintenance medium at room temperature for 30 min in order to remove as much as possible of the product remaining on the tissue surface. The medium is then removed by gently tapping the insert on absorbent paper, and 50 μl of maintenance medium at 37° C. is added. The inserts are then incubated for 6 h at 37° C./5% CO2.
In summary, corneal tissues are recovered with forceps and placed in tubes for rapid freezing in liquid nitrogen. The RNA is then extracted by the QIAzol technique (Qiagen, Courtaboeuf, France) with an “RNeasy Mini Kit” according to the manufacturer's instructions. In summary, the tissues are placed in 1 ml of QIAzol and homogenized using the TissueLyser II (Qiagen, Courtaboeuf, France) with 2 steel beads. After centrifugation, the supernatant is collected and 0.2 ml of bromochloro propane (Sigma, France) is added, then the whole is vigorously mixed. The homogenate is centrifuged at 12,000 g for 15 min at 4° C. The upper phase (aqueous phase) is added to 600 μl of 70% ethanol and immediately mixed by pipetting. The mixture is transferred to an RNeasy spin column placed on a 2 ml collection tube and the RNA is collected according to the manufacturer's instructions (Qiagen, Courtaboeuf, France).
In summary, the transcription of total RNA is performed with 1 μg of total RNA in a final volume of 20 μl using “Random Primers” (Invitrogen, France) and “SuperScript III Reverse Transcriptase” (Invitrogen, France) according to the manufacturer's instructions. Quantitative RT-PCR uses a PCR reagent mix: SYBR Green Real-Time PCR Master Mix (ROCHE, France) with 0.4 μM of each nucleotide primer in a final volume of 25 μl. The reaction is performed in an LC480 System (ROCHE, France). The amplification program comprises a cycle at 95° C. for 1 min, followed by 40 cycles with denaturation at 95° C. for 15 s, a hybridization and amplification phase at 60° C. for 15 s, followed by a final elongation phase at 72° C. for 40 s.

eye = settings: cited from earlier work; for GHS Class: Table 6, list of solid chemicals studied; for eye irritation category as stated in text and figure legends: control chemicals and chemicals of FIG. 1 and FIG. 2; for UN GHS: Table 1, list of liquid products studied
[2] = liquid products, category from LII at 100% and 30%
[3] = Table 3, results obtained by the Draize test, liquid products

In the case of “1-Ethyl-3-methylimidazolium ethylsulfate”, the EIT prediction [1, 2] is listed as “No Cat*” and the UN-GHS (eye; [3]) is listed as “No Cat”.

In the case of `Oc1cccc2c(O)cccc12` [1,5-Naphthalenediol], the UN-GHS (eye; Draize test classification) is listed as “Cat 2A”, the “GHS Class” value (eye) is listed as “Cat 2A” and the “eye irritation category as stated in text and figure legends” value (“eye irritation category as stated” for short) (eye; listed as naphthalene dione) is listed as “Category 2”.

For `C=CCCCCCCC=C` [1,9-Decadiene], the EIT prediction [1] is given as “No Cat” and the UN-GHS (eye; [3]) is given as “No Cat”.

In the case of `OCCCCCCCCCl` [1-Chloroctan-8-ol], the EIT prediction [1, 2] is given as “Cat 1”, the “UN GHS” value (eye) is given as “Cat 1” and the UN-GHS (eye; [3]) is given as “Cat 1”.

In the case of `O=C(O)Cc1cccc2ccccc12` [1-Naphthalene acetic acid], the UN-GHS (eye; Draize test classification) is listed as “Cat 1” and the “GHS Class” value (eye) is listed as “Cat 1”.

For `CC(C)(C)CC(C)(C)c1cc(Cc2cc(C(C)(C)CC(C)(C)C)cc(-n3nc4ccccc4n3)c2O)c(O)c(-n2nc3ccccc3n2)c1` [2,2′-Methylene-bis-(6-(2H-benzotriazol-2-yl)-4-(1,1,3,3-tetramethylbutyl)phenol)], the “GHS Class” value (eye) is given as “No cat” and the “eye irritation category as stated” value (eye) is given as “No category”.

In the case of `CC(O)CC(C)O` (stereo not shown) [2,4-Pentanediol], the EIT prediction [1] is given as “No Cat”, the UN-GHS (eye; [3]) is given as “No Cat” and the “eye irritation category as stated” value (eye) is given as “No category”.

For `O=C(Cl)c1c(Cl)cccc1Cl` [2,6-Dichlorobenzoyl chloride], the EIT prediction ([1]; human, 10 min) is given as “Cat 2” and the UN-GHS (eye; [3]) is given as “Cat 2A”.

In the case of `C=C(C)C(=O)OCCOCC` [2-Ethoxyethyl methacrylate], the EIT prediction [1] is given as “No Cat” and the UN-GHS (eye; [3]) is given as “No Cat”.

In the case of `CCCC(C)CO` (stereo not shown) [2-Methyl-1-pentanol], the EIT prediction ([1]; human, 10 min) is listed as “Cat 2”, the UN-GHS (eye; [3]) is listed as “Cat 2B” and the “eye irritation category as stated” value (eye) is listed as “Category 2”.

In the case of `N#CCCCl` [3-Chloropropionitrile], the EIT prediction [1, 2] is given as “Cat 2” and the UN-GHS (eye; [3]) is given as “Cat 2B”.

For `CC(C)=O` [Acetone 100%, Acetone], the EIT prediction [1, 2] is given as “Cat 2”, the UN-GHS (eye; [3]) is given as “Cat 2A” and the “eye irritation category as stated” value (eye) is given as “category 2”.

In the case of `C=CCO` [Allyl alcohol], the EIT prediction [1, 2] is given as “Cat 2” and the UN-GHS (eye; [3]) is given as “Cat 2A”.

In the case of `CC(C)(C)CC(C)(C)c1ccc(OCCOCC[N+](C)(C)Cc2ccccc2)cc1` [Benzethonium chloride 10%, Benzethonium chloride], the EIT prediction [1, 2] is reported as “Cat 1”.

In the case of `N=C(NCCCCCCNC(=N)NC(=N)Nc1ccc(Cl)cc1)NC(=N)Nc1ccc(Cl)cc1.O=C(O)[C@H](O)[C@@H](O)[C@H](O)[C@H](O)CO.O=C(O)[C@H](O)[C@@H](O)[C@H](O)[C@H](O)CO` [Chlorhexidine gluconate (20%), Chlorhexidine gluconate], the EIT prediction [1, 2] is given as “Cat 2” and the UN-GHS (eye; [3]) is given as “Cat 2A”.

In the case of `[H]/N=C(\N/C(=N/[H])NCCCCCCNC(=N)NC(=N)Nc1ccc(Cl)cc1)Nc1ccc(Cl)cc1` [Chlorhexidine], the EIT prediction ([1]; human, 10 min) is given as “Cat 1”, the “UN GHS” value (eye) is given as “Cat 1” and the UN-GHS (eye; [3]) is given as “Cat 1”.

In the case of `CCN(CC)C(=O)c1cccc(C)c1` [Diethyl toluamide], the EIT prediction ([1]; human, 10 min) is listed as “Cat 2” and the UN-GHS (eye; [3]) is listed as “Cat 2B”.

For `CCN(CC)CCC#N` [Diethylaminopropionitrile], the EIT prediction [1, 2] is given as “Cat 1”, the “UN GHS” value (eye) is given as “Cat 1” and the UN-GHS (eye; [3]) is given as “Cat 1”.

For `CCCSSCCC` [Dipropyl disulfide], the EIT prediction [1] is listed as “No Cat” and the UN-GHS (eye; [3]) is listed as “No Cat”.

For `CCOC(=O)C(C)C(C)=O` (stereo not shown) [Ethyl-2-methylacetoacetate], the EIT prediction ([1]; human, 10 min) is given as “Cat 2*” and the UN-GHS (eye; [3]) is given as “Cat 2B”.

In the case of `O=C1CCCO1` [Gamma-butyrolactone], the EIT prediction [1, 2] is listed as “Cat 2” and the UN-GHS (eye; [3]) is listed as “Cat 2A”.

For `OCC(O)CO` [Glycerol], the EIT prediction [1] is given as “No Cat” and the “eye irritation category as stated” value (eye) is given as “No category”.

For `O=C(O)CO` [Glycolic acid (10%), Glycolic acid], the UN-GHS (eye; [3]) is given as “Cat 2B”.

In the case of `CCCCCCCCCCCCCCCC[N+](C)(C)C.[Br-]` [Hexadecyltrimethylammonium bromide 6%, Hexadecyltrimethylammonium bromide], the EIT prediction ([1]; human, 10 min) is given as “Cat 1”, the “UN GHS” value (eye) is given as “Cat 1” and the UN-GHS (eye; [3]) is given as “Cat 1”.

In the case of `CC(O)C(=O)O` (stereo not shown) [Lactic acid], the EIT prediction ([1]; human, 10 min) is given as “Cat 1”, the “UN GHS” value (eye) is given as “Cat 1” and the UN-GHS (eye; [3]) is given as “Cat 1”. For the same compound, the “eye irritation category as stated” value (eye) was “category 1”.

For `CCC(C)=O` [Methyl ethyl ketone], the EIT prediction [1, 2] is listed as “Cat 2” and the “eye irritation category as stated” value (eye) is listed as “category 2”.

For `COC(=O)CS` [Methyl thioglycolate], the EIT prediction ([1]; human, 10 min) is given as “Cat 1”, the “UN GHS” value (eye) is given as “Cat 1” and the UN-GHS (eye; [3]) is given as “Cat 1”. The “eye irritation category as stated” value (eye) was “category 1”.

For `CCCCCCCC[Si](OC)(OC)OC` [Octyltrimethoxysilane (SILAN 108), Octyltrimethoxysilane], the EIT prediction [1] is listed as “No Cat*” and the UN-GHS (eye; [3]) is listed as “No Cat”.

In the case of `CCCOCC(C)O` (stereo not shown) [Propasol Solvent P], the EIT prediction [1, 2] is given as “Cat 1” and the UN-GHS (eye; [3]) is given as “Cat 2A”.

In the case of `[Na+].[OH-]` [Sodium hydroxide 0.3%, Sodium hydroxide], the EIT prediction [1, 2] is given as “Cat 2” and the UN-GHS (eye; [3]) is given as “Cat 2A”.

In the case of `CCCCCCCCCCCCOS(=O)(=O)[O-].[Na+]` [Sodium lauryl sulfate 3%, Sodium lauryl sulfate], the EIT prediction [1, 2] is reported as “No Cat”.

For `C=CC(=O)OCCOCCOCCOCCOC(=O)C=C` [Tetraethylene glycol diacrylate], the EIT prediction ([1]; human, 10 min) is given as “Cat 2”, the “UN GHS” value (eye) is given as “Cat 1” and the UN-GHS (eye; [3]) is given as “Cat 1”.

For `CO[Si](CCCNCCN)(OC)OC` [[3-(2-Aminoethylamino)propyl]trimethoxysilane], the EIT prediction ([1]; human, 10 min) is given as “Cat 1”, the “UN GHS” value (eye) is given as “Cat 1” and the UN-GHS (eye; [3]) is given as “cat 1”.

For `CCCCCCC(C=O)=Cc1ccccc1` [alpha hexyl cinnamaldehyde], the “eye irritation category as stated” value (eye) is given as “category 2”.

In the case of `CC(C)C=O` [iso-Butanal], the EIT prediction [1, 2] is listed as “Cat 2” and the UN-GHS (eye; [3]) is listed as “Cat 2B”.

In the case of `CCCCCCBr` [n-Hexyl bromide], the EIT prediction [1, 2] is listed as “No Cat*” and the UN-GHS (eye; [3]) is listed as “No Cat”.

For `CCCCCCCCCCCCOS(=O)(=O)[O-].[Na+]` [sodium lauryl sulfate (15%), sodium lauryl sulfate], the “eye irritation category as stated” value (eye) is given as “category 1”.

In the case of “Benzalkonium chloride [Benzalkonium chloride 5%]”, the EIT prediction [1, 2] is given as “Cat 1”, the “UN GHS” value (eye) is given as “Cat 1” and the UN-GHS (eye; [3]) is given as “Cat 1”.

In the case of Triton X100 [Triton X100 1%], the EIT prediction [1, 2] is given as “No Cat” and the UN-GHS (eye; [3]) is given as “No Cat”.

For Triton X100 [Triton X100 5%], the EIT prediction [1, 2] is given as “Cat 2” and the UN-GHS (eye; [3]) is given as “Cat 2A”.

In the case of Triton X100 [Triton X100 10%], the EIT prediction [1, 2] is given as “Cat 1”, the “UN GHS” value (eye) is given as “Cat 1” and the UN-GHS (eye; [3]) is given as “Cat 1”.

For Triton X-100 [Triton X-100 10%], the EIT prediction [1, 2] is given as “Cat 1”, the “UN GHS” value (eye) is given as “Cat 1” and the UN-GHS (eye; [3]) is given as “Cat 1”.

In the case of “benzalkonium chloride [benzalkonium chloride (10%)]”, the “eye irritation category as stated” value (eye) is listed as “category 1”.
